From patent publication US10125095B2, “Abscisic acid derivative” (NATIONAL UNIVERSITY CORPORATION SHIZUOKA UNIVERSITY, priority 2014, dated 2018)

Key:
[1] = test system: seeds of thale cress (Arabidopsis thaliana, Col-0); experiment: Thale cress seed germination test; assay type: in vivo
Protocol: Seeds of thale cress (Arabidopsis thaliana, Col-0) were immersed in 500 μL of an aqueous solution of 70% ethanol for 30 minutes, subsequently in 500 μL of a 100% ethanol solution for 1 minute, washed five times in 1 mL of distilled water, then immersed in distilled water and, in a dark place, vernalized at 4° C. for 3 days. A solution of the sample in methanol was put in a 1.5 mL-microtube, and methanol was removed therefrom under reduced pressure. An aqueous solution of 0.5% agar (containing ½ MS medium inorganic salts) at 70° C. was added thereto and stirred, and subsequently the obtained mixture was placed in a 96-well plate to prepare the medium containing the sample. All samples were prepared so as to have a concentration of 3 μM of the compound in Examples 1 to 9 and Comparative Example 1. Further, when ABA is applied, the ABA concentration was adjusted to 0.3 μM. 20 to 30 vernalized seeds of thale cress were planted in each well and cultured at 22° C. under continuous light to monitor the number of seeds germinated over time. The germination rate was calculated by the following formula (1). Note that those cultured in medium prepared using methanol in the same manner were used as controls. […] Germination rate (%)=Number of seeds germinated/Number of seeds planted×100 (1)
The same test was carried out as in Test Example 1 with the concentrations of the compound of Example 1 for treatment varying from 0.3 μM to 30 μM.
Similarly, the same test was carried out with the concentrations of the compound of Example 2 for treatment varying from 0.3 μM to 30 μM.
The same test was carried out as in Test Example 2 with the concentrations of the compounds for treatment varying from 0.3 μM to 3 μM to compare the recovery effects on seed germination rate of the compound of Example 1 and the compound of Comparative Example 1.

PYR1 = target: T1, PYR1 (Arabidopsis thaliana, UniProt O49686); experiment: Protein dephosphorylation enzyme activity test, PYR1; assay type: biochemical, thale cress; conditions: control = 100%
T1 construct: 6xHis (N); made in house; host or cells: Escherichia coli BL21-codonplus(DE3)-RIPL (PYL); BL21(DE3)pLysS (HAB1)
T1 sequence (O49686 1-191): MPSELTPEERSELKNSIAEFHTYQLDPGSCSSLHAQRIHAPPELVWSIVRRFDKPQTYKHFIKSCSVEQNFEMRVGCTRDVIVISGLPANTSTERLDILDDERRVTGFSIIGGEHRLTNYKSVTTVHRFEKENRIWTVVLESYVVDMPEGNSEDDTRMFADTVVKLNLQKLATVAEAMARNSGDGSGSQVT
Protocol: A plasmid (pGex-2T-GST-HAB1 or pET28-6×His-PYL) encoded with PYR/PYL/RCAR proteins (PYL, abscisic acid receptor) or protein dephosphorylation enzyme HAB1 of thale cress was transformed to Escherichia coli (HAB1:BL21(DE3)pLysS, PYL:BL21-codonplus(DE3)-RIPL). Isopropyl-β-thiogalactopyranoside was added to the culture broth, which had been subjected to pre-culture (30° C., 180 rpm, 15 hours) and main culture (30° C., 180 rpm, 4 hours), and the protein-expressed (16° C., 150 rpm, 18 hours) crude enzyme solution was purified using FPLC thereby preparing the recombined PYL (PYR1, PYL1-6, PYL8-10) and HAB1. β-Mercaptoethanol, a manganese chloride aqueous solution, HAB1, PYL, a solution of the sample in dimethylsulfoxide and ultrapure water were sequentially added to a 96-well plate, allowed to stand at 22° C. for 30 minutes. Subsequently p-nitrophenylphosphate, which is the artificial substrate of HAB1, was added thereto to start the reaction, and the plate was placed in a microplate reader (TECAN, Infinite™ N200 NanoQuant). The absorbance at 405 nm due to p-nitrophenol, which is the hydrolysate of p-nitrophenylphosphate, was measured 3 minutes later from the reaction initiation, and HAB1 activity was calculated by the following formula (2). Note that the fraction to which only dimethylsulfoxide was added was considered to be the control and the activity thereof was defined as 100%. […] HAB1 specific activity (%)=Absorbance when sample was added/Absorbance of control×100 (2)

recombined PYL5 = target: T2, recombined PYL5 (Arabidopsis thaliana, UniProt Q9FLB1); experiment: Bonding affinity measurement using an isothermal titration calorimeter; assay type: binding, thale cress; conditions: ITC, 20° C., sodium phosphate buffer
T2 construct: 6xHis (N); made in house; host or cells: Escherichia coli BL21-codonplus(DE3)-RIPL
T2 sequence (Q9FLB1 1-203): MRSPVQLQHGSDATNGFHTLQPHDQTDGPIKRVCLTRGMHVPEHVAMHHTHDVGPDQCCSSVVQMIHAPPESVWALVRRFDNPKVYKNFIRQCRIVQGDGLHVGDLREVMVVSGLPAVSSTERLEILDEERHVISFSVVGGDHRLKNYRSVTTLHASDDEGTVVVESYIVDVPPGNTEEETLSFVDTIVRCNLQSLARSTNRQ
Protocol: A sodium phosphate buffer solution of a recombined PYL5 was prepared in the same procedure as in Test Example 5, and put in a reaction cell of an isothermal titration calorimeter (GE Healthcare, MicroCal iTC200), and a sodium phosphate buffer solution of the compound of Example 1 was put in the syringe. Then, the calorimeter was set to 20° C. and the measurement was carded out. The same measurement as above was also carried out for the compounds of Examples 7 to 9.

[2] = 3 μM compound co-applied with 0.3 μM ABA

Row | SMILES | HAB1 Specific activity (%) PYR1 (PYR1; ABA + compound) [%] | HAB1 Specific activity (%) PYR1 (PYR1; sample alone) [%] | Kd (recombined PYL5) [nM] | ΔG (recombined PYL5) [kcal/mol] | ΔH (recombined PYL5) [kcal/mol] | −TΔS (recombined PYL5) [kcal/mol] | Germination rate (%) 24 Hours later [1, 2] [%] | Germination rate (%) 36 Hours later [1, 2] [%] | Germination rate (%) 48 Hours later [1, 2] [%] | Germination rate (%) 60 Hours later [1, 2] [%] | Germination rate (%) 24 Hours later ([1]; compound alone, 3 μM) [%] | Germination rate (%) 36 Hours later ([1]; compound alone, 3 μM) [%] | Germination rate (%) 48 Hours later ([1]; compound alone, 3 μM) [%] | Germination rate (%) 60 Hours later ([1]; compound alone, 3 μM) [%]
1 | C#CCO[C@@H]1C=C(C)[C@](O)(/C=C/C(C)=C\C(=O)O)C(C)(C)C1 [Example 3, (2Z,4E)-5-((1S,4S)-1-hydroxy-2,6,6-trimethyl-4-(prop-2-yn-1-yloxy)cyclohex-2-en-1-yl)-3-methylpenta-2,4-dienoic acid] |  |  |  |  |  |  | 0 | 6.9 | 20.7 | 48.3 | 0 | 13.3 | 60 | 71.1
2 | CC1=C[C@@H](OCCCc2ccccc2)CC(C)(C)[C@@]1(O)/C=C/C(C)=C\C(=O)O [Example 9] | 32.1 | 87.8 | 360 ± 70 | -8.6 ± 0.1 | -6.7 ± 0.1 | -2.0 | 0 | 60 | 100 | 100 | 1 | 88 | 100 | 100
3 | CC(=O)c1ccc(C#CCO[C@@H]2C=C(C)[C@](O)(/C=C/C(C)=C\C(=O)O)C(C)(C)C2)cc1 [Example 6, (2Z,4E)-5-((1S,4S)-1-hydroxy-2,6,6-trimethyl-4-((3-(4-acetyl)phenylprop-2-yn-1-yl)oxy)cyclohex-2-en-1-yl)-3-methylpenta-2,4-dienoic acid] | 41.5 | 87.9 |  |  |  |  | 7 | 28 | 52 | 72 | 0 | 17 | 75 | 92

Further lines, with some results ahead:

Row | HAB1 Specific activity (%) PYR1 (PYR1; ABA + compound) [%] | HAB1 Specific activity (%) PYR1 (PYR1; sample alone) [%] | Kd (recombined PYL5) [nM] | ΔG (recombined PYL5) [kcal/mol] | ΔH (recombined PYL5) [kcal/mol] | −TΔS (recombined PYL5) [kcal/mol] | SMILES | Germination rate (%) 24 Hours later [1, 2] [%] | Germination rate (%) 36 Hours later [1, 2] [%] | Germination rate (%) 48 Hours later [1, 2] [%] | Germination rate (%) 60 Hours later [1, 2] [%] | Germination rate (%) 24 Hours later ([1]; compound alone, 3 μM) [%] | Germination rate (%) 36 Hours later ([1]; compound alone, 3 μM) [%] | Germination rate (%) 48 Hours later ([1]; compound alone, 3 μM) [%] | Germination rate (%) 60 Hours later ([1]; compound alone, 3 μM) [%]
4 | 50.5 | 92.3 |  |  |  |  | COc1ccc(C#CCO[C@@H]2C=C(C)[C@](O)(/C=C/C(C)=C\C(=O)O)C(C)(C)C2)cc1 [Example 5, (2Z,4E)-5-((1S,4S)-1-hydroxy-2,6,6-trimethyl-4-((3-(4-methoxy)phenylprop-2-yn-1-yl)oxy)cyclohex-2-en-1-yl)-3-methylpenta-2,4-dienoic acid] | 0 | 30 | 67 | 100 | 5 | 37 | 79 | 95
5 | 36.7 | 55.4 |  |  |  |  | CC1=C[C@@H](OCC#Cc2ccc(C(F)(F)F)cc2)CC(C)(C)[C@@]1(O)/C=C/C(C)=C\C(=O)O [Example 4, (2Z,4E)-5-((1S,4S)-1-hydroxy-2,6,6-trimethyl-4-((3-(4-trifluoromethyl)phenylprop-2-yn-1-yl)oxy)cyclohex-2-en-1-yl)-3-methylpenta-2,4-dienoic acid] | 0 | 29 | 58 | 100 | 8 | 33 | 75 | 92
6 | 62.9 | 105 | 180 ± 10 | -9.0 ± 0.1 | -4.9 ± 0.1 | -4.1 | CC1=C[C@@H](OCC#Cc2ccc(S(F)(F)(F)(F)F)cc2)CC(C)(C)[C@@]1(O)/C=C/C(C)=C\C(=O)O [Example 8] | 0 | 0 | 23 | 89 | 0 | 60 | 100 | 100
